Data as given in patent US20210380606A1, “5-AZAINDAZOLE DERIVATIVES AS ADENOSINE RECEPTOR ANTAGONISTS” (Merck Patent GmbH, priority 2018, published 2021).

Assays:
human A2A receptors = target: T1, human A2A receptors (Homo sapiens, UniProt P29274); experiment: Functional human A2A receptor activity, recombinant HEK293 cells, cAMP (HTRF); type: cell-based; conditions: read-out: A2A (Category)
T1 construct: expressed in transfected cells; host or cells: HEK293
Method: (§1) The functional activities of human A2A and A2B receptors were determined by quantification of cAMP, being the second messenger for adenosine receptors.
(§2) After a 15 min incubation, HTRF reagents (cAMP dynamic 2, Cis Bio) were added and the cellular cAMP levels were determined using the ENVISION (Perkin Elmer) plate reader.

human A2B receptors = target: T2, human A2B receptors (Homo sapiens, UniProt P29275); experiment: Functional human A2B receptor activity, recombinant HEK293 cells, cAMP (HTRF); type: cell-based; conditions: read-out: A2B (Category)
T2 construct: expressed in transfected cells; host or cells: HEK293
T2 sequence (P29275 1-332): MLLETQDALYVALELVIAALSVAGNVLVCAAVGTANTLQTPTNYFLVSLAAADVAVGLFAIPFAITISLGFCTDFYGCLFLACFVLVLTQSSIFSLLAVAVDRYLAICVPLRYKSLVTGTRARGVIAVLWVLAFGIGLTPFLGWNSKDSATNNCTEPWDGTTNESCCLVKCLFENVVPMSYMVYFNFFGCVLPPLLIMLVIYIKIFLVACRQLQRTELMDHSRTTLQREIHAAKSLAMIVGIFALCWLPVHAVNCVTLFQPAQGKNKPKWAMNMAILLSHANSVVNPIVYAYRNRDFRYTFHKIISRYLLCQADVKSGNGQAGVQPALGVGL
Method: as §1, §2

T1 sequence (P29274 whole entry): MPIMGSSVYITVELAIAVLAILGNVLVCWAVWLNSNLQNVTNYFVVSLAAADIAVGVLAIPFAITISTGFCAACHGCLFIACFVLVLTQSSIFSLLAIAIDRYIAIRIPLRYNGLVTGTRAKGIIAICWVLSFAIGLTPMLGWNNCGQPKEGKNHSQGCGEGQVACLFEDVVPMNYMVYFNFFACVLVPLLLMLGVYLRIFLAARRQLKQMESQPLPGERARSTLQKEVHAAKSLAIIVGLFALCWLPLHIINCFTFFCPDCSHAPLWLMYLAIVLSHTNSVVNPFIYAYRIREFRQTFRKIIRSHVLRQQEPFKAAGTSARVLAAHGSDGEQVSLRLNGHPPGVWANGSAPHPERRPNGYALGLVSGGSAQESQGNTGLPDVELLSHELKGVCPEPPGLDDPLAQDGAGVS

| IC50 (human A2A receptors) [nM] | IC50 (human A2B receptors) [nM] | SMILES |
| --- | --- | --- |
| < 100 | < 1000 | O=C(c1cc2c(cn1)c(-c1cnc3c(F)cc(F)cn13)nn2CC(F)(F)F)N1CCCCC(O)C1 (racemic) [Compound 134, [3-(6,8-Difluoro-imidazo[1,2-a]pyridin-3-yl)-1-(2,2,2-trifluoro-ethyl)-1H-pyrazolo[4,3-c]pyridin-6-yl]-(3-hydroxy-azepan-1-yl)-methanone] |
| < 100 | < 1000 | C[C@@]1(O)C[C@H]2C[C@@H]1CN2C(=O)c1cc2c(cn1)c(-c1coc3ccccc13)nn2CS(C)(=O)=O (relative stereo) [Compound 31, (3-Benzofuran-3-yl-1-methanesulfonylmethyl-1H-pyrazolo[4,3-c]pyridin-6-yl)-(5-endo-hydroxy-5-exo-methyl-2-aza-bicyclo[2.2.1]hept-2-yl)-methanone] |
| < 100 | < 100 | O=C(c1cc2c(cn1)c(-c1cnc3ccc(F)cn13)nn2CC(F)F)N1CCCCCC1 [Compound 3, Azepan-1-yl-[1-(2,2-difluoro-ethyl)-3-(6-fluoro-imidazo[1,2-a]pyridin-3-yl)-1H-pyrazolo[4,3-c]pyridin-6-yl]-methanone] |
| < 100 | < 1000 | O=C(c1cc2c(cn1)c(-c1cnc3ccc(F)cn13)nn2CCF)N1CCCCCC1 [Compound 4, Azepan-1-yl-[1-(2-fluoro-ethyl)-3-(6-fluoro-imidazo[1,2-a]pyridin-3-yl)-1H-pyrazolo[4,3-c]pyridin-6-yl]-methenone] |
| < 100 | < 1000 | CCCn1nc(-c2cnc3ccc(F)cn23)c2cnc(C(=O)N3CCCCCC3)cc21 [Compound 5, Azepan-1-yl-[3-(6-fluoro-imidazo[1,2-a]pyridin-3-yl)-1-propyl-1H-pyrazolo[4,3-c]pyridin-6-yl]-methanone] |
| < 100 | < 1000 | COCn1nc(-c2cnc3ccc(F)cn23)c2cnc(C(=O)N3CCCCCC3)cc21 [Compound 6, Azepan-1-yl-[3-(6-fluoro-imidazo[1,2-a]pyridin-3-yl)-1-methoxymethyl-1H-pyrazolo[4,3-c]pyridin-6-yl]-methanone] |
| < 100 | < 1000 | N#CCn1nc(-c2cnc3ccc(F)cn23)c2cnc(C(=O)N3CCCCCC3)cc21 [Compound 7, [6-(Azepane-1-carbonyl)-3-(6-fluoro-imidazo[1,2-a]pyridin-3-yl)-pyrazolo[4,3-c]pyridin-1-yl]-acetonitrile] |
| < 100 | < 1000 | O=C(c1cc2c(cn1)c(-c1cnc3c(F)cc(F)cn13)nn2CC1CC1)N1CCCOCC1 [Compound 9, [1-Cyclopropylmethyl-3-(6,8-difluoro-imidazo[1,2-a]pyridin-3-yl)-1H-pyrazolo[4,3-c]pyridin-6-yl]-1,4-oxazepan-4-yl-methanone] |
| < 100 | < 1000 | CS(=O)(=O)n1nc(-c2cnc3c(F)cc(F)cn23)c2cnc(C(=O)N3CCCOCC3)cc21 [Compound 10, [3-(6,8-Difluoro-imidazo[1,2-a]pyridin-3-yl)-1-methanesulfonyl-1H-pyrazolo[4,3-c]pyridin-6-yl]-1,4-oxazepan-4-yl-methanone] |
| < 100 | < 1000 | N#CCn1nc(-c2coc3ccccc23)c2cnc(C(=O)N3CCCOCC3)cc21 [Compound 13, [3-Benzofuran-3-yl-6-(1,4-oxazepane-4-carbonyl)-pyrazolo[4,3-c]pyridin-1-yl]-acetonitrile] |
| < 100 | < 100 | CSCn1nc(-c2cnc3c(F)cc(F)cn23)c2cnc(C(=O)N3CC4CCC(C4)C3)cc21 [Compound 14, (3-Aza-bicyclo[3.2.1]oct-3-yl)-[3-(6,8-difluoro-imidazo[1,2-a]pyridin-3-yl)-1-methylsulfanylmethyl-1H-pyrazolo[4,3-c]pyridin-6-yl]-methanone] |
| < 100 | < 100 | CS(=O)(=O)Cn1nc(-c2cnc3c(F)cc(F)cn23)c2cnc(C(=O)N3CCCOCC3)cc21 [Compound 15, [3-(6,8-Difluoro-imidazo[1,2-a]pyridin-3-yl)-1-methanesulfonylmethyl-1H-pyrazolo[4,3-c]pyridin-6-yl]-1,4-oxazepan-4-yl-methanone] |
| < 100 | < 100 | CS(=O)(=O)Cn1nc(-c2coc3ccccc23)c2cnc(C(=O)N3CCCOCC3)cc21 [Compound 16, (3-Benzofuran-3-yl-1-methanesulfonylmethyl-1H-pyrazolo[4,3-c]pyridine-6-yl)-1,4-oxazepan-4-yl-methanone] |
| < 100 | < 100 | CS(=O)(=O)Cn1nc(-c2cnn3ccccc23)c2cnc(C(=O)N3CCCOCC3)cc21 [Compound 17, (1-Methanesulfonylmethyl-3-pyrazolo[1,5-a]pyridin-3-yl-1H-pyrazolo[4,3-c]pyridin-6-yl)-1,4-oxazepan-4-yl-methanone] |
| < 100 | < 1000 | CS(=O)(=O)Cn1nc(-c2cnn3ccccc23)c2cnc(C(=O)N3CC4CCC(C4)C3)cc21 [Compound 18, (3-Aza-bicyclo[3.2.1]oct-3-yl)-(1-methanesulfonylmethyl-3-pyrazolo[1,5-a]pyridin-3-yl-1H-pyrazolo[4,3-c]pyridin-6-yl)-methanone] |
| < 100 | < 100 | CS(=O)(=O)Cn1nc(-c2coc3ccccc23)c2cnc(C(=O)N3CC4CCC(C4)C3)cc21 [Compound 19, (3-Aza-bicyclo[3.2.1]oct-3-yl)-(3-benzofuran-3-yl-1-methanesulfonylmethyl-1H-pyrazolo[4,3-c]pyridin-6-yl)-methanone] |
| < 100 | < 100 | CS(=O)(=O)Cn1nc(-c2cnc3ccc(F)cn23)c2cnc(C(=O)N3CCCCCC3)cc21 [Compound 20, Azepan-1-yl-[3-(6-fluoro-imidazo[1,2-a]pyridin-3-yl)-1-methanesulfonylmethyl-1H-pyrazolo[4,3-c]pyridin-6-yl]-methanone] |
| < 100 | < 100 | CS(=O)(=O)Cn1nc(-c2cnc3c(F)cc(F)cn23)c2cnc(C(=O)N3CC4CCC(C4)C3)cc21 [Compound 23, (3-Aza-bicyclo[3.2.1]oct-3-yl)-[3-(6,8-difluoro-imidazo[1,2-a]pyridin-3-yl)-1-methanesulfonylmethyl-1H-pyrazolo[4,3-c]pyridin-6-yl]-methanone] |
| < 100 | < 100 | CC1(O)C2CCC1CN(C(=O)c1cc3c(cn1)c(-c1cnc4c(F)cc(F)cn14)nn3CS(C)(=O)=O)C2 (stereo not drawn) [Compound 24, [3-(6,8-Difluoro-imidazo[1,2-a]pyridin-3-yl)-1-methanesulfonylmethyl-1H-pyrazolo[4,3-c]pyridin-6-yl]-(8-endo-hydroxy-8-exo-methyl-3-aza-bicyclo[3.2.1]oct-3-yl)-methanone] |
| < 100 | < 1000 | CS(=O)(=O)Cn1nc(-c2cnc3c(F)cc(F)cn23)c2cnc(C(=O)N3CC4CCC(C3)O4)cc21 [Compound 27, [3-(6,8-Difluoro-imidazo[1,2-a]pyridin-3-yl)-1-methanesulfonylmethyl-1H-pyrazolo[4,3 c]pyridin-6-yl]-(8-oxa-3-aza-bicyclo[3.2.1]oct-3-yl)-methanone] |

| SMILES | IC50 (human A2A receptors) [nM] | IC50 (human A2B receptors) [nM] |
| --- | --- | --- |
| CS(=O)(=O)Cn1nc(-c2cnc3c(F)cc(F)cn23)c2cnc(C(=O)N3[C@@H]4CC[C@H]3C[C@@H](O)C4)cc21 [Compound 25, [3-(6,8-Difluoro-imidazo[1,2-a]pyridin-3-yl)-1-methanesulfonylmethyl-1H-pyrazolo[4,3-c]pyridin-6-yl]-(3-endo-hydroxy-8-aza-bicyclo[3.2.1]oct-8-yl)-methanone] | < 100 | < 100 |
